In patent US4536346A, “Aralkanamidophenyl compounds” (American Cyanamid Company, priority 1983, dated 1985):

Target: T1, fatty acyl CoA: cholesterol acyl transferase (ACAT) (Rattus norvegicus, UniProt O70536)
T1 construct: The supernatant, containing the microsomal fraction, served as the source of the cholesterol-esterifying enzyme; from tissue; host or cells: rat adrenals (1,000 x g supernatant containing the microsomal fraction)
T1 sequence (O70536 1-545): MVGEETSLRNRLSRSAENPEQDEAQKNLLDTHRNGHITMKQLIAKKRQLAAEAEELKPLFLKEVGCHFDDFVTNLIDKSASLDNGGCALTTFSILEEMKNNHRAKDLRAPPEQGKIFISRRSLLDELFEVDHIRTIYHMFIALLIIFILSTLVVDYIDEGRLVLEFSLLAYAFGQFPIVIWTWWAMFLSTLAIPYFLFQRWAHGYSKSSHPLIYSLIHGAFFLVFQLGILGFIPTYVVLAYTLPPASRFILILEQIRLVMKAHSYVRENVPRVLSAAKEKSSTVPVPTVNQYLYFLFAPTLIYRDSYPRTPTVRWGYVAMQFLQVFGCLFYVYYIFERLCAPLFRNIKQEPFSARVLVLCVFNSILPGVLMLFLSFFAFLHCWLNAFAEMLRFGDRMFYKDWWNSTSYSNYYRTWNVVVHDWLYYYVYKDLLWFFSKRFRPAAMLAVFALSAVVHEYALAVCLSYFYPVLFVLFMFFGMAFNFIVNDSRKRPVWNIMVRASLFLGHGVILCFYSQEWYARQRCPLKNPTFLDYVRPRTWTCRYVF
Experiment: Inhibition of enzymatic esterification of cholesterol (ACAT) in rat adrenal supernatant containing the microsomal fraction
Assay type: biochemical
Settings: final concentration of test compound 5.2 μg./ml., percent inhibition of the ACAT enzyme compared to control values
Experimental: The compounds of the present invention were tested for their ability to inhibit the enzymatic esterification of cholesterol according to the following procedure:
Rat adrenals were homogenized in 0.2M monobasic potassium phosphate buffer, pH 7.4, and centrifuged at 1,000 times gravity for 15 minutes at 5° C. The supernatant, containing the microsomal fraction, served as the source of the cholesterol-esterifying enzyme, fatty acyl CoA: cholesterol acyl transferase (ACAT). A mixture comprising 50 parts of adrenal supernatant, 10 parts of albumin (BSA) (50 mg./ml.), […], 3 parts of test compound, and 500 parts of buffer was pre-incubated at 37° C. for 10 minutes. After treatment with 20 parts of oleoyl CoA (^14 C-0.4 μCi), the mixture was incubated at 37° C. for 10 minutes. A control mixture, omitting the test compound, was prepared and treated in the same manner. The lipids from the incubation mixture were extracted into an organic solvent and separated by thin-layer chromatography. The cholesterol ester fraction was counted in a scintillation counter. This procedure is a modification of that described by Hashimoto, et al., Life Scie., 12 (Part II), 1-12 (1973).
The results of this test on representative compounds of this invention appear in Table I. The final concentration of the test compound was 5.2 μg./ml., and the effectiveness of the compound is expressed as percent inhibition of the ACAT enzyme compared to control values.

Row | inhibition at 5.2 µg/mL [%] | Compound
1 | 71 | COC(=O)c1ccccc1NC(=O)C=C(c1ccc(Cl)cc1)c1ccc(Cl)cc1 [2-[3,3-Bis(p-chlorophenyl)acrylamido]benzoic acid, methyl ester]
2 | 32 | O=C(C=C(c1ccc(Cl)cc1)c1ccc(Cl)cc1)Nc1ccccc1C(=O)O [2-[3,3-Bis(p-chlorophenyl)acrylamido]benzoic acid]
3 | 98 | O=C(C=C(c1ccc(Cl)cc1)c1ccc(Cl)cc1)Nc1cccc(C(=O)O)c1 [3 - [3,3-Bis(p-chlorophenyl)acrylamido]benzoic acid]
4 | 96 | N#Cc1ccc(NC(=O)C=C(c2ccc(Cl)cc2)c2ccc(Cl)cc2)cc1 [3,3-Bis(p-chlorophenyl-4'-cyanoacrylanilide]
5 | 94 | COC(=O)c1cccc(NC(=O)C=C(c2ccc(Cl)cc2)c2ccc(Cl)cc2)c1 [3-[3,3-Bis(p-chlorophenyl)acrylamido]benzoic acid, methyl ester]
6 | 86 | CC(=O)c1ccc(NC(=O)C=C(c2ccc(Cl)cc2)c2ccc(Cl)cc2)cc1 [4'-Acetyl-3,3-bis(p-chlorophenyl)acrylanilide]
7 | 82 | COc1ccc(C(CC(=O)Nc2ccc(C(C)=O)cc2)c2ccc(OC)cc2)cc1 [4'-[3,3-Bis(4-methoxyphenyl)propionamido]acetophenone]
8 | 45 | COc1ccc(C(CC(=O)Nc2ccc(C(=O)O)cc2)c2ccc(OC)cc2)cc1 [4'-[3,3-Bis(4-methoxyphenyl)propionamido]benzoic acid]
9 | 66 | O=C(C=C(c1ccccc1)c1ccccc1)Nc1ccc(C(=O)O)cc1 [4-(3,3-Diphenylacrylamido)benzoic acid]
10 | 74 | CCOC(=O)c1ccc(NC(=O)C=C(C)c2ccc(Cl)c(Cl)c2)cc1 [4-(3,4-Dichlorophenyl-β-methylacrylamido)benzoic acid, ethyl ester]
11 | 94 | CCOC(=O)c1ccc(NC(=O)C=C(c2ccccc2)c2ccc(Cl)c([N+](=O)[O-])c2)cc1 [4-(4-Chloro-3-nitro-β-phenylcinnamamido)benzoic acid, ethyl ester]
12 | 74 | CCOC(=O)c1ccc(NC(=O)C=C(C)c2ccc(Cl)cc2)cc1 [4-(p-Chloro-β-methylcinnamamido)benzoic acid, ethyl ester]
13 | 71 | CC(=CC(=O)Nc1ccc(C(=O)O)cc1)c1ccc(Cl)cc1 [4-(p-Chloro-β-methylcinnamamido)benzoic acid]
14 | 92 | CCOC(=O)c1ccc(NC(=O)C=C(c2ccccc2)c2ccc(Cl)cc2)cc1 [4-(p-Chloro-β-phenylcinnamamido)benzoic acid, ethyl ester]
15 | 77 | O=C(C=C(c1ccccc1)c1ccc(Cl)cc1)Nc1ccc(C(=O)O)cc1 [4-(p-Chloro-β-phenylcinnamamido)benzoic acid]
16 | 51 | CCOC(=O)c1ccc(NC(=O)C=Cc2ccc(Cl)cc2)cc1 [4-(p-Chlorocinnamamido)benzoic acid, ethyl ester]
17 | 30 | CCOC(=O)c1ccc(NC(=O)CCc2ccc(Cl)cc2)cc1 [4-(p-Chlorohydrocinnamamido)benzoic acid, ethyl ester]
18 | 33 | O=C(CCc1ccc(Cl)cc1)Nc1ccc(C(=O)O)cc1 [4-(p-Chlorohydrocinnamamido)benzoic acid]
19 | 18 | O=C(CCCCCc1ccc(Cl)cc1)Nc1ccc(C(=O)O)cc1 [4-(p-Chlorophenyl)hexanamidobenzoic acid, 4-[6-(p-Chlorophenyl)hexanamido]benzoic acid]
20 | 53 | CCOC(=O)c1ccc(NC(=O)C=Cc2ccc(OC)cc2)cc1 [4-(p-Methoxycinnamamido)benzoic acid, ethyl ester]
21 | 20 | COc1ccc(C=CC(=O)Nc2ccc(C(=O)O)cc2)cc1 [4-(p-Methoxycinnamamido)benzoic acid]
22 | 28 | CCOC(=O)c1ccc(NC(=O)CCc2ccc(OC)cc2)cc1 [4-(p-Methoxyhydrocinnamamido)benzoic acid, ethyl ester]

Row | inhibition at 5.2 µg/mL [%] | Compound
23 | 88 | CCOC(=O)c1ccc(NC(=O)C=C(c2ccccc2)c2ccc(C)cc2)cc1 [4-(p-Methyl-β-phenylcinnamamido)benzoic acid, ethyl ester]
24 | 80 | Cc1ccc(C(=CC(=O)Nc2ccc(C(=O)O)cc2)c2ccccc2)cc1 [4-(p-Methyl-β-phenylcinnamamido)benzoic acid]
25 | 25 | CCOC(=O)c1ccc(NC(=O)CCc2ccc(C)cc2)cc1 [4-(p-Methylhydrocinnamamido)benzoic acid, ethyl ester]
26 | 41 | O=C(C=Cc1ccc(Cl)cc1)Nc1ccc(C(=O)O)cc1 [4-(p-chlorocinnamamido)benzoic acid, 4-(p-Chlorocinnamamido)benzoic acid]
27 | 86 | CCOC(=O)c1ccc(NC(=O)C(c2ccc(Cl)cc2)c2ccc(Cl)cc2)cc1 [4-[2,2-Bis(p-chlorophenyl)acetamido]benzoic acid, ethyl ester]
28 | 71 | O=C(O)c1ccc(NC(=O)C(c2ccc(Cl)cc2)c2ccc(Cl)cc2)cc1 [4-[2,2-Bis(p-chlorophenyl)acetamido]benzoic acid]
29 | 96 | CCOC(=O)c1ccc(NC(=O)C=C(c2ccc(Br)cc2)c2ccc(Br)cc2)cc1 [4-[3,3-Bis(p-bromophenyl)acrylamido]benzoic acid, ethyl ester]
30 | 90 | O=C(C=C(c1ccc(Br)cc1)c1ccc(Br)cc1)Nc1ccc(C(=O)O)cc1 [4-[3,3-Bis(p-bromophenyl)acrylamido]benzoic acid]
31 | 93 | CCOC(=O)c1ccc(NC(=O)C=C(c2ccc(Cl)cc2)c2ccc(Cl)cc2)cc1 [4-[3,3-Bis(p-chlorophenyl)acrylamido]benzoic acid, ethyl ester]
32 | 91 | O=C(C=C(c1ccc(Cl)cc1)c1ccc(Cl)cc1)Nc1ccc(C(=O)O)cc1 [4-[3,3-Bis(p-chlorophenyl)acrylamido]benzoic acid]
33 | 94 | CCOC(=O)c1ccc(NC(=O)CC(c2ccc(Cl)cc2)c2ccc(Cl)cc2)cc1 [4-[3,3-Bis(p-chlorophenyl)propionamido]benzoic acid, ethyl ester]
34 | 71 | O=C(CC(c1ccc(Cl)cc1)c1ccc(Cl)cc1)Nc1ccc(C(=O)O)cc1 [4-[3,3-Bis(p-chlorophenyl)propionamido]benzoic acid]
35 | 74 | CCOC(=O)c1ccc(NC(=O)C=C(c2ccc(F)cc2)c2ccc(F)cc2)cc1 [4-[3,3-Bis(p-fluorophenyl)acrylamido]benzoic acid, ethyl ester]
36 | 79 | O=C(C=C(c1ccc(F)cc1)c1ccc(F)cc1)Nc1ccc(C(=O)O)cc1 [4-[3,3-Bis(p-fluorophenyl)acrylamido]benzoic acid]
37 | 97 | CCOC(=O)c1ccc(NC(=O)C=C(c2ccc(OC)cc2)c2ccc(OC)cc2)cc1 [4-[3,3-Bis(p-methoxyphenyl)acrylamido]benzoic acid, ethyl ester]
38 | 78 | COc1ccc(C(=CC(=O)Nc2ccc(C(=O)O)cc2)c2ccc(OC)cc2)cc1 [4-[3,3-Bis(p-methoxyphenyl)acrylamido]benzoic acid]
39 | 97 | CCOC(=O)c1ccc(NC(=O)C=C(c2ccc(C)cc2)c2ccc(C)cc2)cc1 [4-[3,3-Di-(p-tolyl)acrylamido]benzoic acid, ethyl ester]
40 | 89 | Cc1ccc(C(=CC(=O)Nc2ccc(C(=O)O)cc2)c2ccc(C)cc2)cc1 [4-[3,3-Di-(p-tolyl)acrylamido]benzoic acid]
41 | 42 | CCOC(=O)c1ccc(NC(=O)CCCCCc2ccc(Cl)cc2)cc1 [4-[6-(p-Chlorophenyl)hexanamido]benzoic acid, ethyl ester]
42 | 88 | CCOC(=O)COC(=O)c1ccc(NC(=O)C=C(c2ccc(Cl)cc2)c2ccc(Cl)cc2)cc1 [4-[p-Chloro-β-(p-chlorophenyl)cinnamamido]benzoic acid, ethyl glycolate ester]
43 | 91 | CCOC(=O)c1ccc(NC(=O)CC(c2ccc(OC)cc2)c2ccc(OC)cc2)cc1 [Ethyl 4'-[3,3-bis(4-methoxyphenyl)propionamido]benzoate]
